In the first test the target is T1, human LPA1 (Homo sapiens, UniProt Q92633).
T1 construct: expressed in transfected cells; host or cells: Chinese hamster ovary (CHO) cells
T1 sequence (Q92633 whole entry): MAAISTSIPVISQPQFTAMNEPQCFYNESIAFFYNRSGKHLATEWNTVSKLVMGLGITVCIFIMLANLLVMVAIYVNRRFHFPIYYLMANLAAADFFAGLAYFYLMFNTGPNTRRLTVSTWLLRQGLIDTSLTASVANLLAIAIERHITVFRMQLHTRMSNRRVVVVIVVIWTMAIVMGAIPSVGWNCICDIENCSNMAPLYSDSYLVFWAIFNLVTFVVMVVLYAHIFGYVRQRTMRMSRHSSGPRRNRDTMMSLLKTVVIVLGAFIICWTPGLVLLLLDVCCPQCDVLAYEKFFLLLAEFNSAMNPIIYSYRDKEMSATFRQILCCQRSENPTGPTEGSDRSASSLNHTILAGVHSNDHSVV
Kind of test: LPA1 functional antagonist assay (calcium flux). In kind it is cell-based. The following applies: CHO cells overexpressing human LPA1; calcium flux induced by 10 nM LPA; read-out: hLPA1 IC50. As for the experimental part:
The effectiveness of compounds of the present invention as LPA1 inhibitors can be determined in an LPA1 functional antagonist assay as follows:
The cells were then equilibrated to room temperature for 30 minutes before the assay. […] IC50 values were determined by fitting data to a 4-parameter logistic equation (GraphPad Prism, San Diego Calif.).
Background: A change in cytosolic calcium serves as a functional read-out for many receptors and channels.
As a reminder, the IC50 is the point on the concentration scale where inhibition reaches its midpoint. For the compound `Cc1nc(-c2nnn(C)c2CNC(=O)NC2CC3CCC2C3)ccc1O[C@H]1CCC[C@H](C(=O)O)C1` (stereo partly drawn) [Example 117, (1S,3S)-3-((6-(5-((3-(bicyclo [2.2.1]heptan-2-yl)ureido)methyl)-1-methyl-1H-1,2,3-triazol-4-yl)-2-methylpyridin-3-yl)oxy)cyclohexane-1-carboxylic acid], the 50% inhibitory concentration (IC50) amounted to 420 nM.
As to `Cn1nnc(-c2ccc(O[C@H]3CCC[C@H](C(=O)O)C3)c(C(F)(F)F)n2)c1CNC(=O)OC1CCCC1` [Example 96], the half-inhibitory concentration (IC50) turned out to be 33 nM.
On the same count and under the same terms, the result for `CCCCOC(=O)Nc1c(-c2ccc(O[C@H]3CCC[C@H](C(=O)O)C3)c(CC)n2)nnn1C` [Example 232, (1 S,3 S)-3-[(6-{5-[(butoxycarbonyl)amino]-1-methyl-1H-1,2,3-triazol-4-yl}-2-ethylpyridin-3-yl)oxy]cyclo-hexane-1-carboxylic acid] reads 12 nM; that for `CCCC1(COC(=O)NCc2c(-c3ccc(O[C@H]4CCC[C@H](C(=O)O)C4)c(C)n3)nnn2C)CC1` [Example 60, (1S,3S)-3-((2-methyl-6-(1-methyl-5-(((((1-propylcyclopropyl)methoxy)carbonyl)amino)methyl)-1H-1,2,3-triazol-4-yl)pyridin-3-yl)oxy)cyclohexane-1-carboxylic acid], 12 nM; that for `CCc1nc(-c2nnn(C)c2NC(=O)OCC(C)C)ccc1O[C@H]1CCC[C@H](C(=O)O)C1` [Example 230, (1S,3S)-3-{[2-ethyl-6-(1-methyl-5-{[(2-methylpropoxy)carbonyl]amino}-1H-1,2,3-triazol-4-yl)pyridin-3-yl]oxy}cyclohexane-1-carboxylic acid], 17 nM.
The same measure, in the same setting: the result for `CC(C)OC(=O)Nc1c(-c2ccc(O[C@H]3CCC[C@H](C(=O)O)C3)cn2)nnn1C` [Example 220, (1S,3S)-3-((6-(5-((isopropoxy-carbonyl)amino)-1-methyl-1H-1,2,3-triazol-4-yl)pyridin-3-yl)oxy)cyclohexane-1-carboxylic acid] reads 389 nM; that for `Cn1nnc(-c2ccc(O[C@H]3CCC[C@H](C(=O)O)C3)cn2)c1CNC(=O)OCC(C)(C)C` [Example 26, (1S,3S)-3-((6-(1-methyl-5-((((neopentyloxy)carbonyl)amino)methyl)-1H-1,2,3-triazol-4-yl)pyridin-3-yl)oxy)cyclohexane-1-carboxylic acid], 44 nM.
Same read-out and setting: the result for `Cc1nc(-c2nnn(C)c2CNC(=O)OCC(C)C)ccc1O[C@H]1CCC[C@H](C(=O)O)C1` [Example 25, (1S,3S)-3-((6-(5-(((isobutoxycarbonyl)amino)methyl)-1-methyl-1H-1,2,3-triazol-4-yl)-2-methyl-pyridin-3-yl)oxy)cyclohexane-1-carboxylic acid] reads 51 nM; that for `CCCCOC(=O)Nc1c(-c2nc(C)c(O[C@H]3CCC[C@H](C(=O)O)C3)cc2F)nnn1C` [Example 217], 72 nM; that for `C[C@@H](OC(=O)NCc1c(-c2ccc(O[C@H]3CCC[C@H](C(=O)O)C3)cn2)nnn1C)c1ccccc1` [Example 10, (1S,3S)-3-((6-(1-methyl-5-(((((R)-1-phenylethoxy)carbonyl)amino)methyl)-1H-1,2,3-triazol-4-yl)pyridin-3-yl)oxy)cyclohexane-1-carboxylic acid], 104 nM.
Consider `Cc1nc(-c2nnn(C)c2CNC(=O)OCCCC(C)(F)F)ccc1O[C@H]1CCC[C@H](C(=O)O)C1` [Example 206, (1S,3S)-3-((6-(5-(((((4,4-difluoropentyl)oxy)carbonyl)amino)methyl)-1-methyl-1H-1,2,3-triazol-4-yl)-2-methylpyridin-3-yl)oxy)cyclohexane-1-carboxylicacid], for which the IC50 was 71 nM.
As to `Cc1nc(-c2nnn(C)c2NC(=O)OC(C)(C)C)ccc1O[C@H]1CCC[C@H](C(=O)O)C1` [Example 64, (1S,3S)-3-((6-(5-((tert-butoxycarbonyl)amino)-1-methyl-1H-1,2,3-triazol-4-yl)-2-methylpyridin-3-yl)oxy)cyclohexane-1-carboxylicacid], the IC50 is 54 nM.
Take `Cc1nc(-c2nnn(C)c2CCNC(=O)OC2CCCC2)ccc1O[C@H]1CCC[C@H](C(=O)O)C1` [Example 105, (1S,3S)-3-((6-(5-(2-(((cyclopentyl-oxy)carbonyl)amino)ethyl)-1-methyl-1H-1,2,3-triazol-4-yl)-2-methyl-pyridin-3-yl)oxy)cyclohexane-1-carboxylic acid]: the IC50 was determined as 1830 nM.
For `Cc1nc(-c2nnn(C)c2CNC(=O)OCc2ccccc2)ccc1O[C@@H]1CCC[C@@](F)(C(=O)O)C1` (racemic) [Example 209, (±)-Cis-3-((6-(5-((((benzyloxy)carbonyl)amino)methyl)-1-methyl-1H-1,2,3-triazol-4-yl)-2-methylpyridin-3-yl)oxy)-1-fluorocyclohexanecarboxylic acid], the 50% inhibitory concentration (IC50) came to 12 nM.
On the same count and under the same terms, the result for `Cc1nc(-c2nnn(C)c2CNC(=O)NC(CF)c2ccccc2)ccc1O[C@H]1CCC[C@H](C(=O)O)C1` (mixture of isomers) [Example 121, (1S,3S)-3-((6-(5-((3-(2-fluoro-1-phenyl-ethyl)ureido)methyl)-1-methyl-1H-1,2,3-triazol-4-yl)-2-methylpyridin-3-yl)oxy)cyclohexane-1-carboxylic acid] reads 555 nM.
Same read-out and setting: the result for `Cc1nc(-c2nnn(C)c2CNC(=O)O[C@H](C)c2ccccc2)ccc1O[C@H]1CCC[C@H](C(=O)O)C1` [Example 18, (1S,3S)-3-((2-methyl-6-(1-methyl-5-(((((R)-1-phenylethoxy)carbonyl)amino)methyl)-1H-1,2,3-triazol-4-yl)pyridin-3-yl)oxy)cyclohexane-1-carboxylic acid] reads 12 nM; that for `CCCOC(=O)NCc1c(-c2ccc(O[C@H]3CCC[C@H](C(=O)O)C3)c(C(F)(F)F)n2)nnn1C` [Example 95, (1S,3S)-3-((6-(1-methyl-5-(((propoxy-carbonyl)amino)methyl)-1H-1,2,3-triazol-4-yl)-2-(trifluoromethyl)pyridin-3-yl)oxy)cyclohexane-1-carboxylic acid], 867 nM.
The same measure, in the same setting: the result for `CCCCNC(=O)NCc1c(-c2ccc(O[C@H]3CCC[C@H](C(=O)O)C3)c(C)n2)nnn1C` [Example 124, (1S,3S)-3-((6-(5-((3-butylureido)methyl)-1-methyl-1H-1,2,3-triazol-4-yl)-2-methylpyridin-3-yl)oxy)cyclohexane-1-carboxylic acid] reads 434 nM.
As to `Cn1nnc(-c2ccc(O[C@H]3CCC[C@H](C(=O)O)C3)cn2)c1CNC(=O)CC1CCCC1` [Example 236, (1S,3S)-3-((6-(5-((2-cyclopentylacetamido)methyl)-1-methyl-1H-1,2,3-triazol-4-yl)pyridin-3-yl)oxy)cyclohexanecarboxylic acid], the concentration for half-maximal inhibition (IC50) stood at 569 nM.
Same read-out and setting: the result for `CC(C)COC(=O)NCc1c(-c2ccc(O[C@H]3CCC[C@H](C(=O)O)C3)c(C(F)F)n2)nnn1C` [Example 99, (1S,3S)-3-((2-(difluoromethyl)-6-(5-(((isobutoxycarbonyl)amino)methyl)-1-methyl-1H-1,2,3-triazol-4-yl)pyridin-3-yl)oxy)cyclohexane-1-carboxylic acid] reads 71 nM; that for `Cc1nc(-c2nnn(C)c2CN(C)C(=O)NCc2ccccc2)ccc1O[C@H]1CCC[C@H](C(=O)O)C1` [Example 113, (1S,3S)-3-((6-(5-((3-benzyl-1-methylureido)methyl)-1-methyl-1H-1,2,3-triazol-4-yl)-2-methyl-pyridin-3-yl)oxy)cyclohexane-1-carboxylic acid], 218 nM; that for `Cc1nc(-c2nnn(C)c2CCNC(=O)CC(C)CC(C)(C)C)ccc1O[C@H]1CCC[C@H](C(=O)O)C1` (mixture of isomers) [Example 239, (1S,3S)-3-((2-methyl-6-(1-methyl-5-(2-(3,5,5-trimethylhexanamido)ethyl)-1H-1,2,3-triazol-4-yl)pyridin-3-yl)oxy)cyclohexane-1-carboxylic acid (diastereomeric mixture)], 1020 nM.
On the same count and under the same terms, the result for `Cc1nc(-c2nnn(C)c2CCNC(=O)OCC(C)(C)C)ccc1O[C@H]1CCC[C@H](C(=O)O)C1` [Example 104, (1S,3S)-3-((2-methyl-6-(1-methyl-5-(2-(((neopentyloxy)carbonyl)amino)ethyl)-1H-1,2,3-triazol-4-yl)pyridin-3-yl)oxy)cyclohexane-1-carboxylic acid] reads 1360 nM.

The same test, now with this note: human LPA1 functional antagonist assay; read-out: hLPA1 IC50.
`Cc1nc(-c2nnn(C)c2CNC(=O)OCC2CC2(F)F)ccc1O[C@H]1CCC[C@H](C(=O)O)C1` (mixture of isomers) [Example 180, (1S,3S)-3-((6-(5-(((((2,2-difluoro-cyclopropyl)methoxy)carbonyl)amino)methyl)-1-methyl-1H-1,2,3-triazol-4-yl)-2-methylpyridin-3-yl)oxy)cyclohexane-1-carboxylic acid (diastereomers at cyclopropyl carbon)]: the IC50 is 53 nM.
Same read-out and setting: the result for `Cc1nc(-c2nnn(C)c2CNC(=O)OCCC(C)C)ccc1O[C@H]1CCC[C@H](C(=O)O)C1` [Example 197, (1S,3S)-3-((6-(5-((((isopentyloxy)carbonyl)amino)methyl)-1-methyl-1H-1,2,3-triazol-4-yl)-2-methyl-pyridin-3-yl)oxy)cyclohexane-1-carboxylic acid] reads 16 nM; that for `Cc1nc(-c2nnn(C)c2CNC(=O)OCC(C)CC(F)F)ccc1O[C@H]1CCC[C@H](C(=O)O)C1` (stereo partly drawn) [Example 196, (1S,3S)-3-((6-(5-((((4,4-difluoro-2-methylbutoxy)carbonyl)amino)methyl)-1-methyl-1H-1,2,3-triazol-4-yl)-2-methylpyridin-3-yl)oxy)cyclo-hexane-1-carboxylic acid], 83 nM; that for `Cc1nc(-c2nnn(C)c2CNC(=O)OC2CCC2)ccc1O[C@H]1CCC[C@H](C(=O)O)C1` [Example 177, (1S,3S)-3-((6-(5-(((cyclobutoxycarbonyl)amino)methyl)-1-methyl-1H-1,2,3-triazol-4-yl)-2-methyl-pyridin-3-yl)oxy)cyclohexane-1-carboxylic acid], 148 nM.

Values taken from US11697646B2, “Triazole N-linked carbamoyl cyclohexyl acids as LPA antagonists” (BRISTOL-MYERS SQUIBB COMPANY, priority 2017, dated 2023).
